Experimental data: US10966912B2, “Medicament” (SYMRISE AG, priority 2016, dated 2021)

Assays:
Type in all cases: cell-based
[1] = tested on: Human epidermal melanoma cells A375; assay: Basal melanin formation in vitro; conditions: for melanin: basal
[2] = tested on: Human epidermal melanoma cells A375; assay: Visible light induced hyperpigmentation in vitro; conditions: for Inhibition vs visible light induced / melanin: visible light 480 J/cm2, A375 cells; for melanin: treated 48 h before and after irradiation
Description: Human epidermal melanoma cells A375 were cultured in 6-well plates. The cells were exposed to visible light (480 J/cm2) with Hydrosun 750 equipped with KG1 filter. 48 h prior to and past to the irradiation the cells were treated with test compounds in non-cytotoxic concentrations. Melanocytes were lysed in a solution of NaOH. Melanin was quantified by measurement of absorbance at 405 nm and calculation based on a melanin standard curve.

[3] = tested on: ex vivo human skin explants; assay: Melanin formation after visible light irradiation on ex vivo human skin; conditions: visible light 480 J/cm2; for Inhibition vs Placebo: ex vivo human skin; for % of melanin: topical on skin explant phototype IV, Fontana-Masson stain, image analysis
Description: The below formulations were applied on ex vivo human skin explants from abdominal surgery of a donor with phototype IV (Fitzpatrick scale). 48 h after the formulations were removed with a cotton pad. Skin explants were exposed to visible light (480 J/cm2) with Hydrosun 750 equipped with KG1 filter. Formulations were reapplied afterwards. 48 h later skin sections were prepared and melanin was stained by Fontana-Masson stain. Quantification of melanin was done by image analysis.

`NCCC(=O)N[C@@H](Cc1cnc[nH]1)C(=O)O` [L-carnosine] was tested, and the “effect on basal melanin formation” value [1] was “no effect”, the melanin ([1]; 0.001% L-carnosine) was 0.6845 µg and the melanin ([1]; 0.00316% L-carnosine) was 0.6186 µg. For the same compound, the “Inhibition vs visible light induced” value ([2]; 0.001% L-carnosine) was 110%, the melanin ([2]; 0.001% L-carnosine) was 0.5601 µg and the “Inhibition vs visible light induced” value ([2]; 0.00316% L-carnosine) was 113%. For the same compound, the melanin ([2]; 0.00316% L-carnosine) was 0.5478 µg, the “Inhibition vs visible light induced” value ([2]; 0.01% L-carnosine) was 81% and the melanin ([2]; 0.01% L-carnosine) was 0.6594 µg. For the same compound, the “Inhibition vs visible light induced” value ([2]; 0.0316% L-carnosine) was 90%, the melanin ([2]; 0.0316% L-carnosine) was 0.6296 µg and the “visible light induced hyperpigmentation” value ([2]; A375 cells) was “inhibits significantly”. The “Inhibition vs Placebo” value ([3]; 0.05% L-carnosine (formulation C)) was 91.1%, the “% of melanin” value ([3]; 0.05% L-carnosine (formulation C, Table 3)) was 35.74 ± 2.6% and the “Inhibition vs Placebo” value ([3]; 0.2% L-carnosine (formulation B)) was 92.2%. For the same compound, the “% of melanin” value ([3]; 0.2% L-carnosine (formulation B, Table 3)) was 35.44 ± 2.3%.
